Like-named read-outs stand apart in the source and are kept apart here.
Assays:
[1] = NO donor, NO release; cited from earlier work
[2] = system: Sprague Dawley rats; experiment: Rat blood dialysis with NO gas supplied to the dialysate: 4-hour circulation achievement rate; format: in vivo; conditions: for 4-hour circulation achievement rate: rat blood dialysis
Experimental: An extracorporeal perfusion type polymethylpentene membrane oxygenator was used for gas exchange.
(§1) NO gas of which the concentration was adjusted to 200 ppm, 400 ppm, and 800 ppm was added to the dialysate via a gas exchanger. As a control group, nitrogen gas (N2) was added to the dialysate instead of NO gas.
(§2) FIG. 3 is a schematic diagram showing the structure of a circulation circuit in which the dialyzer is connected to a rat. […] In a case where it was possible to perform the 4-hours circulation, the residual blood in the dialyzer was evaluated.
During the experiment, there was a case where the dialyzer inlet pressure or venous pressure increased, the blood coagulation in the dialyzer or the blood coagulation in the circuit were determined, and the circulation was stopped halfway. Thus, in all groups, the number of 4-hour circulation achievements with respect to the total number of experiments was calculated as the 4-hour circulation achievement rate.
FIG. 4 is a graph showing the 4-hour circulation achievement rate. In FIG. 4, “Control” indicates the results of the control group, and “200 ppm”, “400 ppm”, and “800 ppm” indicate the results of a group in which NO gas of each concentration was supplied to the dialysate.

[3] = system: Sprague Dawley rats; experiment: Measurement of NO concentration in blood and dialysate during rat blood dialysis (OxiSelect Nitrite/Nitrate kit); format: in vivo; conditions: 800 ppm NO gas; blood (out) venous side vs blood (in) arterial side of dialysis unit; 1 hour
Experimental: as §1
For a group in which 800 ppm of NO gas was supplied to the dialysate, the dialysate was supplied to the blood (in) on an arterial side of the dialysis unit, the blood (out) on a venous side of the dialysis unit, the dialysate (in) in the dialysate supply channel for supplying the dialysate to the dialysis unit, and the dialysate (out) in the dialysate discharge channel for discharging the dialysate from the dialysis unit were collected 1 hour after the start of circulation, and the NO concentration was measured using a commercially available kit (“OxiSelect In Vitro Nitric Oxide (Nitrite/Nitrate) Assay Kit (Colorimetric)” made by Cell Biolabs, Inc.). The NO concentration was measured as the sum of the concentrations of NO2^− and NO3^− after the NO was completely hydrolyzed. For this reason, hereinafter, there is a case where the total concentration of […] is referred to as the NO concentration.

[4] = system: Sprague Dawley rats; experiment: Methemoglobin (Met-Hb) during rat blood dialysis with NO gas; format: in vivo
Experimental: as §1

[5] = system: Sprague Dawley rats; experiment: Residual blood LDH activity value and residual blood Hb in the dialyzer after 4 hours of circulation (NO gas); format: in vivo, rat; conditions: for amount of residual blood Hb: compared to control group
Experimental: as §1, §2
In FIG. 6, “Control” indicates the results of the control group, and “200 ppm”, “400 ppm”, and “800 ppm” indicate the results of a group in which NO gas of each concentration was supplied to the dialysate.

[6] = system: Sprague Dawley rats; conditions: all groups (40, 80, 120 μM sodium nitrite)
Experimental: (§3) Male Sprague Dawley rats (body weight: 300 g to 400 g) that were 8 to 12 weeks old were used. The rats were inhaled and anesthetized using isoflurane 1.5% to 3.0% as an anesthetic. Blood was removed from the carotid artery, and blood was returned into the tail vein. The blood flow rate was 0.5 mL/min to 1.0 mL/min, the dialysate flow rate was 3 mL/min, and the blood dialysis was performed for 4 hours by a parallel flow operation. Heparin was administered at 0.7 units/g at the start of dialysis.
(§4) Dialysates in which the sodium nitrite concentration was adjusted to be 40 μM, 80 μM, and 120 μM were used. As a control group, a dialysate containing no sodium nitrite was used.
(§5) During the experiment, arterial pressure, dialyzer inlet pressure, and venous pressure were measured at intervals of 15 minutes. Additionally, methemoglobin (Met-Hb) was measured at the start of the experiment and then at intervals of 60 minutes. Additionally, after the circulation was ended, the dialyzer was washed, and the amount of residual blood hemoglobin (Hb) amount and the activity value of residual blood lactate dehydrogenase (LDH) were measured.

[7] = system: Sprague Dawley rats
Experimental: Blood dialysis of rats was performed by changing the amount of nitrite to be supplied to the dialysate, and the optimal concentration of nitrite was examined.
as §3
As the dialysis unit (dialyzer), a small rat dialyzer having a cellulose triacetate membrane, 140 hollow fibers, an effective length of 146 mm, and a membrane area of 0.014 m^2 were used.
as §4, §5
The experiment was performed with a circulation time of 4 hours. When the dialyzer inlet pressure or venous pressure exceeded 250 mmHg, the circulation was ended.

[8] = system: Sprague Dawley rats; remark: listed apart in the source
Experimental: as §3, §4, §5
After the end of 4 hours of circulation, the dialyzer was washed with 10 mL of Lactec Injection and then a 0.5% Triton (Registered trademark) solution was circulated for 2 hours. After that, an LDH activity value in a washing solution was measured using a commercially available kit (“Cytotoxicity Measurement KitPLUS (LDH)” made by Roche Diagnostics K.K.) and used as the residual blood LDH activity value.

[9] = extrapolated from the 200-800 ppm results
[10] = 80 μM sodium nitrite in dialysate, compared to control group
[11] = 120 μM sodium nitrite in dialysate, compared to control group

Molecule: CNCCCN(C)/[N+]([O-])=N/O [NOC7]
- Half-life [1]: 5 min

Molecule: nitric oxide [NO gas]
- NO concentration at which the 4-hour circulation achievement rate was 100% [2, 9]: 5.4 µM
- 4-hour circulation achievement rate ([2]; 800 ppm compared with 200 ppm and 400 ppm): higher
- 4-hour circulation achievement rate ([2]; as the concentration of NO gas supplied to the dialysate was higher (200, 400, 800 ppm)): increased
- amount of increase in NO concentration in blood [3]: about 3 μM
- Met-Hb ([4]; 800 ppm NO gas): ≤ 10%
- adverse event ([4]; NO gas of 200 ppm to 800 ppm supplied to the dialysate): no adverse event occurred
- Met-Hb ([4]; all NO-added groups (200 ppm to 800 ppm)): less than 10%
- amount of residual blood Hb ([5]; 200 ppm NO gas supplied to the dialysate): significantly lower
- residual blood LDH activity value ([5]; 200 ppm NO gas supplied to the dialysate, compared to control group (N2), after 4 hours): significantly lower
- amount of residual blood Hb ([5]; 400 ppm NO gas supplied to the dialysate): significantly lower
- residual blood LDH activity value ([5]; 400 ppm NO gas supplied to the dialysate, compared to control group (N2), after 4 hours): significantly lower
- amount of residual blood Hb ([5]; 800 ppm NO gas supplied to the dialysate): significantly lower
- residual blood LDH activity value ([5]; 800 ppm NO gas supplied to the dialysate, compared to control group (N2), after 4 hours): significantly lower
- residual blood LDH activity value ([5]; as the NO concentration was higher (200 to 800 ppm)): lower value
- NO concentration at which the residual blood LDH activity value was 0 U/L [5, 9]: 6 µM

Molecule: CC(C)N(CCCN)/[N+]([O-])=N/O [NOC5]
- Half-life [1]: 25 min

Molecule: O=NO [sodium nitrite]
- Met-Hb concentration [6]: ≤ 2%
- blood pressure (arterial pressure) during circulation ([7]; 40 μM sodium nitrite in dialysate): stable for 4 hours
- blood pressure (arterial pressure) during circulation ([7]; 80 μM sodium nitrite in dialysate): stable for 4 hours
- blood pressure (arterial pressure) during circulation ([7]; 120 μM sodium nitrite in dialysate, vs control group): significantly lower
- blood pressure (arterial pressure) during circulation ([7]; 120 μM sodium nitrite in dialysate, vs control group, listed as nitrite ions): slight decrease
- 4 hours circulation ([7]; sodium nitrite groups (40, 80, 120 μM) and control): circulate stably for 4 hours
- residual blood LDH activity value ([8]; 40 μM sodium nitrite in dialysate, compared to control group): significantly lower
- residual blood LDH activity value ([8]; 80 μM and 120 μM as compared to 40 μM): lower value
- amount of residual blood Hb [8, 10]: significantly lower
- residual blood LDH activity value [8, 10]: significantly lower
- amount of residual blood Hb [8, 11]: significantly lower
- residual blood LDH activity value [8, 11]: significantly lower

Molecule: CCNCCN(CC)[N+]([O-])=NO [NOC12]
- Half-life [1]: 100 min

Molecule: CC/C(=C\C(CNC(=O)c1cccnc1)=N\O)C(C)[N+](=O)[O-] (stereo not drawn) [NOR4]
- Half-life [1]: 60 min

Molecule: NCCN(CCN)/[N+]([O-])=N/O [NOC18]
- Half-life [1]: 1260 min

Molecule: COCC(/C(C)=C/C(=N/O)C(N)=O)[N+](=O)[O-] (stereo not drawn) [NOR1]
- Half-life [1]: 1.8 min
